Three compounds from paper PMC8599861, “Structures of prokaryotic ubiquitin-like protein Pup in complex with depupylase Dop reveal the mechanism of catalytic phosphate formation” (Nature Communications, 2021) can be followed below.

The target of test [1] is T1, AcelDop (in complex with AcelPup deltaN43) (Acidothermus cellulolyticus, UniProt A0LU48).
T1 construct: gene dop; C-terminal TEV-His6 tag cleaved, E. coli Rosetta (DE3); Pup fragment deltaN43 (PupQ, PupE or PupBSO) synthetic; with Prokaryotic ubiquitin-like protein Pup
T1 sequence (A0LU49 44-71 E71Q): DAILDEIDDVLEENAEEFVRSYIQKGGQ
T1 sequence (A0LU48 whole entry, the tested form may be a part): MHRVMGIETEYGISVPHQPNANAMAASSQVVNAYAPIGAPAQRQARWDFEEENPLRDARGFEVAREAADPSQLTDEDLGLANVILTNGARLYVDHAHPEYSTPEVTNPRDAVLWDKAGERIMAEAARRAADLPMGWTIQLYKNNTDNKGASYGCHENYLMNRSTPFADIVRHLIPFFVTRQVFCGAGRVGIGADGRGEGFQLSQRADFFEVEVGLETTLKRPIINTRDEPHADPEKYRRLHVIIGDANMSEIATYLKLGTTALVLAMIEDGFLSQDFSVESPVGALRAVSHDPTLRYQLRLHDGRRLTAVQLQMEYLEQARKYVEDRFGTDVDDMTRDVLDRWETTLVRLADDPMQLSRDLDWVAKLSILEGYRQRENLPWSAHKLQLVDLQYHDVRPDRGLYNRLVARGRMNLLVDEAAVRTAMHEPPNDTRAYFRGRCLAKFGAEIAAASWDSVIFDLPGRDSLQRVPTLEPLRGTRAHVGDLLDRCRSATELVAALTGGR
Nature of the test: X-ray crystal structures, […]-1.[…] A. Format: binding. The following applies: with PupE deltaN43 and MgF3(H2O)- (7OYF), phosphorylated PupE, Mg2+/K+ (7OY3; ADP formed in crystal soaked with ATP) or MgF4 2- (7OYH); nucleotide site.

In test [2] the target is T1, AcelDop (in complex with AcelPup deltaN43). The test can be described thus: X-ray crystal structure, […] A. Format: binding. The following applies: co-crystal with PupQ deltaN43 and Mg2+; nucleotide site, about 72 % occupancy.
Test [3] shares this target. Nature of the test: intact mass spectrometry of phosphorylated PupBSO. As to conditions: 2 mM ATP, PupBSO deltaN43 as phosphoryl acceptor, 20 mM MgCl2, pH 8.0, 30 C. The test is classed as biochemical.

For the compound `Nc1ncnc2c1ncn2[C@@H]1O[C@H](COP(=O)(O)OP(=O)(O)O)[C@@H](O)[C@H]1O` [ADP], the “X-ray crystal structures, 1.75-1.88 A” value in test [1] was “We solved the structure of a Dop-Pup complex with a square planar MgFx species bound between ADP and Pup”. `Nc1ncnc2c1ncn2[C@@H]1O[C@H](COP(=O)(O)OP(=O)(O)CP(=O)(O)O)[C@@H](O)[C@H]1O` [AMP-PCP]: in test [2], the “X-ray crystal structure, 1.65 A” value was “crystals of the enzyme in complex with the PupQ fragment and AMP-PCP”. Take `Nc1ncnc2c1ncn2[C@@H]1O[C@H](COP(=O)(O)OP(=O)(O)OP(=O)(O)O)[C@@H](O)[C@H]1O` [ATP]: in test [3], the “intact mass spectrometry of phosphorylated PupBSO” value is reported as “Dop indeed forms a phosphorylated PupBSO species in the presence of ATP”.
